According to patent US9670142B2, “1,3-diaminocyclopentane carboxamide derivatives” (Merck Patent GmbH, priority 2013, dated 2017):

biological target: human fatty acid synthase FASN (Homo sapiens (Human), UniProt P49327); assay: Biochemical activity testing of human fatty acid synthase FASN (NADPH fluorescence intensity enzyme assay); conditions: human recombinant full-length fatty acid synthase
Method in brief: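 In-house Sf9-expressed full-length enzyme (3 μL of 40 nM) in 50 mM potassium phosphate pH 7.0 with glutathione, BSA and Tween-20, plus NADPH (2 μL of 200 μM), preincubated ≥15 min with compound (10 concentrations from 30 μM final, 1% DMSO). Acetyl-CoA/malonyl-CoA added; NADPH fluorescence (ex 340/em 460 nm) read before and after 30 min at room temperature, difference used for IC50.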

human fatty acid synthase FASN, sequence (P49327 whole entry): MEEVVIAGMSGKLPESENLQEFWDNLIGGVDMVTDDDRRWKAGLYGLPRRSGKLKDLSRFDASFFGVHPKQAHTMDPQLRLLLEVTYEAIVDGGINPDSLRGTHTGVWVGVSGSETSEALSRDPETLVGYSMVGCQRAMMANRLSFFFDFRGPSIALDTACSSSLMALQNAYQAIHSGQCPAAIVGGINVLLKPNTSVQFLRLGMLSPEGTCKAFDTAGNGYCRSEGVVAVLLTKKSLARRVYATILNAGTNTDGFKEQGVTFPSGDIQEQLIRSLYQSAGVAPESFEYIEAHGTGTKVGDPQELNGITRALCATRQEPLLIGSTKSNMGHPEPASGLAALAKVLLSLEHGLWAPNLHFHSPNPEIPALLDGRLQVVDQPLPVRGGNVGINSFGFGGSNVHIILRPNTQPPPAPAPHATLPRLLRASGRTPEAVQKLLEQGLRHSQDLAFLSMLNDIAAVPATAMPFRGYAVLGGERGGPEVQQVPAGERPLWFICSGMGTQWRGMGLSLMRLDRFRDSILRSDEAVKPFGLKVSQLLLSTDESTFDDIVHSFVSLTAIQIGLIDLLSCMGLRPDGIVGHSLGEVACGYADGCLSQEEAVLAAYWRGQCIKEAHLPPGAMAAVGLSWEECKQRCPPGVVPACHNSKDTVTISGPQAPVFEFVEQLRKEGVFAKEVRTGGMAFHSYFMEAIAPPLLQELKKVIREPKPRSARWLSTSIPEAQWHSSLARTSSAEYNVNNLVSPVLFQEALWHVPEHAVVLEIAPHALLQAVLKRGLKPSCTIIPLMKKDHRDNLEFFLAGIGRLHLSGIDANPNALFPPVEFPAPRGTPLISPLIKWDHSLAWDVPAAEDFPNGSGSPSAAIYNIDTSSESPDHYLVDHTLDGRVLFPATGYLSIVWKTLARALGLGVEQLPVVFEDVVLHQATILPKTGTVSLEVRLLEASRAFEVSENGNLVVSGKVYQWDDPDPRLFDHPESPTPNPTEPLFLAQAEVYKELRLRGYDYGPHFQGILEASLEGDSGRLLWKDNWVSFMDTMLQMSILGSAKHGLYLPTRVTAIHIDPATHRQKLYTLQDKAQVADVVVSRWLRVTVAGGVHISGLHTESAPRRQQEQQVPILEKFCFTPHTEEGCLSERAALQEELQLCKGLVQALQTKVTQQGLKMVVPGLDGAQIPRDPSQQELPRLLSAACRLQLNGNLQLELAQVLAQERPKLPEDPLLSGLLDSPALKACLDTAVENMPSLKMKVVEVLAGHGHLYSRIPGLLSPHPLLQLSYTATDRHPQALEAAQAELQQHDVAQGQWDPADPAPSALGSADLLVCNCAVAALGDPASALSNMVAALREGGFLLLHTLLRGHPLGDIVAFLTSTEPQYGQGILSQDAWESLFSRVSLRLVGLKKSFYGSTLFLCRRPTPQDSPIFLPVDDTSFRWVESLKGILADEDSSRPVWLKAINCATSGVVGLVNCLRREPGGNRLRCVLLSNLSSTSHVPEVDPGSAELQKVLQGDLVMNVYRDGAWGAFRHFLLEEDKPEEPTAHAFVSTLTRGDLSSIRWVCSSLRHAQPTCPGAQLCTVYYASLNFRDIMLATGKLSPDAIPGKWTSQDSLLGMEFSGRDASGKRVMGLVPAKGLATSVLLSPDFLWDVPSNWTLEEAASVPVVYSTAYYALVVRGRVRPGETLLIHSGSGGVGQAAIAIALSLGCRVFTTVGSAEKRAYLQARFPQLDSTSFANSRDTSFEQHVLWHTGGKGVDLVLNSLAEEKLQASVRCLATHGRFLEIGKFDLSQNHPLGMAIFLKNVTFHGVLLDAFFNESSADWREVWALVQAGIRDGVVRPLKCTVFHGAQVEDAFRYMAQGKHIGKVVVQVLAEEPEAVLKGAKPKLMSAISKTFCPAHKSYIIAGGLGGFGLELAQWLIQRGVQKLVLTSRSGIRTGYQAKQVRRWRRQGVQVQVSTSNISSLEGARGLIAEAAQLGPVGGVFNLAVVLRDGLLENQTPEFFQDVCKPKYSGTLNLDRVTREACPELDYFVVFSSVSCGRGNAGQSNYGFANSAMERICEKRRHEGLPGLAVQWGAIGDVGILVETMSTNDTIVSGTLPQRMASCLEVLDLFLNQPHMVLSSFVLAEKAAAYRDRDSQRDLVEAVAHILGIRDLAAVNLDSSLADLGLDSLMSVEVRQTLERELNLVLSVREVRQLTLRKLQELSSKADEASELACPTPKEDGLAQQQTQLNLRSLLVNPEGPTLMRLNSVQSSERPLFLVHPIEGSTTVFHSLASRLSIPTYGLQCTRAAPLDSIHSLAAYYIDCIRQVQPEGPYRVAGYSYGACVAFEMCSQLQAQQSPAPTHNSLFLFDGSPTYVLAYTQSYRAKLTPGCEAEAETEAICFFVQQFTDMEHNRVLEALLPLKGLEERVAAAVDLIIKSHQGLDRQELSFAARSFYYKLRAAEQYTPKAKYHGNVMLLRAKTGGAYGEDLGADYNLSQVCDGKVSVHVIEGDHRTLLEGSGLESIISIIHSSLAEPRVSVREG

Row | SMILES | IC50 [µM]
1 | CCC(=O)N[C@H]1CC[C@@H](N(C)C(=O)c2ccc(-c3ccc(C(=O)O)cc3)cc2)C1 [Compound A51, 4′-[methyl-((1R,3S)-3-propionylamino-cyclopentyl)-carbamoyl]-biphenyl-4-carboxylic acid] | < 0.3
2 | CCC(=O)N[C@H]1CC[C@@H](N(C)C(=O)c2ccc(C#Cc3ccc(Cl)cc3)cc2)C1 [Compound A14, 4-(4-chloro-phenylethynyl)-N-methyl-N-((1R,3S)-3-propionylamino-cyclopentyl)-benzamide] | < 0.3
3 | CCC(=O)N[C@H]1CC[C@@H](N(C)C(=O)c2ccc(-c3ccc4[nH]ccc4c3)cc2)C1 [Compound A95, 4-(1H-indol-5-yl)-N-methyl-N-((1R,3S)-3-propionylamino-cyclopentyl)-benzamide] | < 0.3
4 | CCC(F)(F)C(=O)N[C@H]1CC[C@@H](N(C)C(=O)c2ccc(-c3nc4ccccc4o3)cc2)C1 [Compound A27, 4-benzoxazol-2-yl-N-[(1R,3S)-3-(2,2-difluoro-butyrylamino)-cyclopentyl]-N-methyl-benzamide] | < 0.3
5 | CC(C)CC(=O)N[C@H]1CC[C@@H](N(C)C(=O)c2ccc(-c3nc4ccccc4o3)cc2)C1 [Compound A35, 4-benzoxazol-2-yl-N-methyl-N-[(1R,3S)-3-(3-methyl-butyrylamino)-cyclopentyl]-benzamide] | < 0.3
6 | CCC(=O)N[C@H]1CC[C@@H](N(C)C(=O)c2ccc(-c3ccc(C)c(F)c3)cc2)C1 [Compound A66, 3′-fluoro-4′-methyl-biphenyl-4-carboxylic acid methyl-((1R,3S)-3-propionylamino-cyclopentyl)-amide] | < 0.3
7 | CCC(=O)N[C@H]1CC[C@@H](N(C)C(=O)c2ccc(-c3ccncc3)cc2)C1 [Compound A4, N-methyl-N-((1R,3S)-3-propionylamino-cyclopentyl)-4-pyridin-4-yl-benzamide] | < 0.3
8 | CCC(C)CC(=O)N[C@H]1CC[C@@H](N(C)C(=O)c2ccc(-c3nc4ccccc4o3)cc2)C1 (stereo partly drawn) [Compound A26, 4-benzoxazol-2-yl-N-methyl-N-[(1R,3S)-3-(3-methyl-pentanoylamino)-cyclopentyl]-benzamide] | < 0.3
9 | CCC(=O)N[C@H]1CC[C@@H](N(C)C(=O)c2ccc(-c3nc4ccccc4o3)c(OC)c2)C1 [Compound A13, 4-benzoxazol-2-yl-3-methoxy-N-methyl-N-((1R,3S)-3-propionylamino-cyclopentyl)-benzamide] | < 0.3
10 | CCC(=O)N[C@H]1CC[C@@H](N(C)C(=O)c2ccc(-c3ccc4c(ccn4C)c3)cc2F)C1 [Compound A111, 2-fluoro-N-methyl-4-(1-methyl-1H-indol-5-yl)-N-((1R,3S)-3-propionylamino-cyclopentyl)-benzamide] | < 0.3
11 | CCC(=O)N[C@H]1CC[C@@H](N(C)C(=O)c2ccc(-c3nc4ccc(F)cc4o3)cc2)C1 [Compound A127, 4-(6-fluoro-benzoxazol-2-yl)-N-methyl-N-((1R,3S)-3-propionylamino-cyclopentyl)-benzamide] | < 0.3
12 | CCC(=O)N[C@H]1CC[C@@H](N(C)C(=O)c2ccc(-c3ccc4nccn4c3)nc2)C1 [Compound A144, 6-imidazo[1,2-a]pyridin-6-yl-N-methyl-N-((1R,3S)-3-propionylamino-cyclopentyl)-nicotinamide] | < 0.3
13 | CCC(=O)N[C@H]1CC[C@@H](N(C)C(=O)c2ccc(-c3nc4ccccc4[nH]3)cc2)C1 [Compound A7, 4-(1H-benzimidazol-2-yl)-N-methyl-N-((1R,3S)-3-propionylamino-cyclopentyl)-benzamide] | < 0.3
14 | CC(C)C(=O)N[C@H]1CC[C@@H](N(C)C(=O)c2ccc(-c3nc4ccccc4o3)cc2)C1 [Compound A17, 4-benzoxazol-2-yl-N-((1R,3S)-3-isobutyrylamino-cyclopentyl)-N-methyl-benzamide] | < 0.3
15 | CN(C(=O)c1ccc(-c2nc3ccc(Cl)cc3o2)nn1)[C@@H]1CC[C@H](NC(=O)[C@@H]2CCCO2)C1 [Compound A158, 6-(6-chloro-1,3-benzoxazol-2-yl)-N-methyl-N-[(1R,3S)-3-[[(2S)-tetrahydrofuran-2-carbonyl]amino]cyclopentyl]pyridazine-3-carboxamide] | 0.3 to 3
16 | CCC(=O)N[C@H]1CC[C@@H](N(C)C(=O)c2ccc(-c3cc(F)c4[nH]cc(C(N)=O)c4c3)c(F)c2)C1 [Compound A172, 7-fluoro-5-{2-fluoro-4-[methyl-((1R,3S)-3-propionylamino-cyclopentyl)-carbamoyl]-phenyl}-1H-indole-3-carboxylic acid amide] | 0.3 to 3
17 | CCCC1CCC(c2ccc(-c3ccc(C(=O)N(C)[C@@H]4CC[C@H](NC(=O)CC)C4)cc3)cc2)OC1 (stereo partly drawn) [Compound A89, 4′-(5-propyl-tetrahydro-pyran-2-yl)-biphenyl-4-carboxylic acid methyl-((1R,3S)-3-propionylamino-cyclopentyl)-amide] | 0.3 to 3

Row | SMILES | IC50 [µM]
18 | CCC(=O)N[C@H]1CC[C@@H](N(C)C(=O)c2ccc(-c3ccc4cc[nH]c4c3F)nc2)C1 [Compound A157, 6-(7-fluoro-1H-indol-6-yl)-N-methyl-N-((1R,3S)-3-propionylamino-cyclopentyl)-nicotinamide] | < 0.3
19 | CCC(=O)N[C@H]1CC[C@@H](N(C)C(=O)c2ccc(-c3cc(C)c4[nH]ncc4c3)cc2)C1 [Compound A107, N-methyl-4-(7-methyl-1H-indazol-5-yl)-N-((1R,3S)-3-propionylamino-cyclopentyl)-benzamide] | < 0.3
20 | CCC(=O)N[C@H]1CC[C@@H](N(C)C(=O)c2ccc(-c3ccc4c(ccn4C)c3)cn2)C1 [Compound A110, 5-(1-methyl-1H-indol-5-yl)-pyridine-2-carboxylic acid methyl-((1R,3S)-3-propionylamino-cyclopentyl)-amide] | < 0.3
21 | CN(C(=O)c1ccc(-c2nc3ccccc3o2)cc1)[C@@H]1CC[C@H](NC(=O)C2(C)CC2)C1 [Compound A3, 4-benzoxazol-2-yl-N-methyl-N-{(1R,3S)-3-[(1-methyl-cyclopropanecarbonyl)-amino]-cyclopentyl}-benzamide] | < 0.3
22 | CN(C(=O)c1ncc(-c2nc3ccc(Cl)cc3o2)cn1)[C@@H]1CC[C@H](NC(=O)[C@@H]2CCCO2)C1 [Compound A149, 5-(6-chloro-benzoxazol-2-yl)-pyrimidine-2-carboxylic acid methyl-{(1R,3S)-3-[((S)-tetrahydro-furan-2-carbonyl)-amino]-cyclopentyl}-amide] | 0.3 to 3
23 | CCC(=O)N[C@H]1CC[C@@H](N(C)C(=O)c2ccc(-c3ccc(C(F)(F)F)cc3)cc2)C1 [Compound A64, 4′-trifluoromethyl-biphenyl-4-carboxylic acid methyl-((1R,3S)-3-propionylamino-cyclopentyl)-amide] | < 0.3
24 | CCC(=O)N[C@H]1CC[C@@H](N(C)C(=O)c2ccc(-c3cn4cccnc4n3)cc2)C1 [Compound A10, 4-imidazo[1,2-a]pyrimidin-2-yl-N-methyl-N-((1R,3S)-3-propionylamino-cyclopentyl)-benzamide] | < 0.3
25 | CCC(=O)N[C@H]1CC[C@@H](N(C)C(=O)c2ccc(-c3ccc(OCC4CC4)cc3)cc2)C1 [Compound A70, 4′-cyclopropylmethoxy-biphenyl-4-carboxylic acid methyl-((1R,3S)-3-propionylamino-cyclopentyl)-amide] | < 0.3
26 | CCC(=O)N[C@@H]1CC[C@@H](N(C)C(=O)c2ccc(-c3nc4ccccc4o3)cc2)C1 [Compound A165, 4-benzoxazol-2-yl-N-methyl-N-((1R,3R)-3-propionylamino-cyclopentyl)-benzamide] | 3 to 50
27 | CCC(=O)N[C@H]1CC[C@@H](N(C)C(=O)c2ccc(-c3ccc4[nH]cc(CN)c4c3)cc2)C1 [Compound A130, 4-(3-aminomethyl-1H-indol-5-yl)-N-methyl-N-((1R,3S)-3-propionylamino-cyclopentyl)-benzamide] | < 0.3
28 | CCC(=O)N[C@H]1CC[C@@H](N(C)C(=O)c2ccc(-c3ccc(C(=O)NC)cc3)cc2)C1 [Compound A78, biphenyl-4,4′-dicarboxylic acid 4′-methylamide 4-[methyl-((1R,3S)-3-propionylamino-cyclopentyl)-amide]] | < 0.3
29 | CCC(=O)N[C@H]1CC[C@@H](N(C)C(=O)c2cnc(-c3nc4ccc(Cl)cc4o3)cn2)C1 [Compound A148, 5-(6-chloro-benzoxazol-2-yl)-pyrazine-2-carboxylic acid methyl-((1R,3S)-3-propionylamino-cyclopentyl)-amide] | 0.3 to 3
30 | CN(C(=O)c1ccc(-c2nc3ccccc3o2)cc1)[C@@H]1CC[C@H](NC(=O)CC2CCCC2)C1 [Compound A44] | < 0.3
31 | CN(C(=O)c1ccc(-c2nc3ccccc3o2)cc1)[C@@H]1CC[C@H](NC(=O)C2CCCC2)C1 [Compound A21, 4-benzoxazol-2-yl-N-[(1R,3S)-3-(cyclopentanecarbonyl-amino)-cyclopentyl]-N-methyl-benzamide] | < 0.3
32 | CCC(=O)N[C@H]1CC[C@@H](N(C)C(=O)c2ccc(-c3ccc4c(c3)OCO4)cc2)C1 [Compound A58, 4-benzo[1,3]dioxol-5-yl-N-methyl-N-((1R,3S)-3-propionylamino-cyclopentyl)-benzamide] | < 0.3
33 | CCC(=O)N[C@H]1CC[C@@H](N(C)C(=O)c2ccc(-c3ccc(C(=O)OC)cc3F)cc2)C1 [Compound A97, 2-fluoro-4′-[methyl-((1R,3S)-3-propionylamino-cyclopentyl)-carbamoyl]-biphenyl-4-carboxylic acid methyl ester] | < 0.3
34 | CCC(=O)N[C@H]1CC[C@@H](N(C)C(=O)c2ccc(-c3ccc(OC)cc3F)cc2)C1 [Compound A99, 2′-fluoro-4′-methoxy-biphenyl-4-carboxylic acid methyl-((1R,3S)-3-propionylamino-cyclopentyl)-amide] | < 0.3
